# Data as given in patent US11365192B2, “Pyridine compound substituted with azole” (TAISHO PHARMACEUTICAL CO., LTD., priority 2017, dated 2022).
# Key:
# [1] = target: human CYP4A11 (Homo sapiens (Human), UniProt Q02928); test: Inhibition test against 20-HETE producing enzyme CYP4A11 (luciferine derivative, luminescence); format: biochemical
# Procedure: (§1) (1) Inhibition Test for Each Compound of the Present Invention Against 20-HETE Producing Enzymes (CYP4F2 and CYP4A11)
# (§2) In the CYP4F2 inhibition test, the reaction solution containing each compound [final concentration of 50 mM, KPO4 (pH 7.4), 2.5 μM luciferine derivative, and 1 mM NADPH] was added to an Escherichia coli membrane fraction (100 μg/mL protein) in which human CYP4F2 had been expressed. In the CYP4A11 inhibition test, the reaction solution containing each compound [final concentration of 100 mM, Tris-HCl (pH 7.5), 60 μM luciferine derivative, 1.3 mM NADP^+, 3.3 mM Glucose 6-Phosphate, 3.3 mM MgCl2, and 0.4 U/mL Glucose 6-Phosphate dehydrogenase] was added to an Escherichia coli membrane fraction (100 μg/mL protein) in which human CYP4A11 had been expressed. Following this, the membrane fraction was left to stand at room temperature for 60 minutes to perform an enzymatic reaction. After the reaction, a luciferine detection reagent was added, and the luminescence value was measured using a plate reader. By using that value, the percent inhibition of 20-HETE producing enzyme (%) was calculated according to the equation described below, and the 50% inhibitory concentration (IC50 value) for each compound was calculated. Percent inhibition of 20-HETE producing enzyme (%)=[1−(A−B)/(C−B)]*100
# (§3) A: Luminescence value with addition of compound
# (§4) B: Luminescence value without addition of compound and enzyme
# [2] = target: human CYP4F2 (Homo sapiens (Human), UniProt P78329); test: Inhibition test against 20-HETE producing enzyme CYP4F2 (luciferine derivative, luminescence); format: biochemical
# Chain of human CYP4F2 (P78329 5-520): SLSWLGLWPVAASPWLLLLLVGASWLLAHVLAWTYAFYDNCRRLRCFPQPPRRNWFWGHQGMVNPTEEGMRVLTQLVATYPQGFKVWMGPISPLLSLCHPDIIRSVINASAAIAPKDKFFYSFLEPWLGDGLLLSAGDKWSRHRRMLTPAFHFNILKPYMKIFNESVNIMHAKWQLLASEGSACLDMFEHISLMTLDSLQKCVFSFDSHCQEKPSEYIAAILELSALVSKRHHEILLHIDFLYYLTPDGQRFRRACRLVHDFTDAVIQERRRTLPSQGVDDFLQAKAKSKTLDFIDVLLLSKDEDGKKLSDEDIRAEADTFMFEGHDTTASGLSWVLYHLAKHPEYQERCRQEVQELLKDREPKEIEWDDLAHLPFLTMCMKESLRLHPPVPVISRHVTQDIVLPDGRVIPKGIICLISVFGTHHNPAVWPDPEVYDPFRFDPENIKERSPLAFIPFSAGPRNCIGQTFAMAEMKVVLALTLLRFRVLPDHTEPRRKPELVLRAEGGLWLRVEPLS
# Procedure: as §1, §2, §3, §4
# [3] = E. coli membrane fraction expressing human CYP4A11, 60 μM luciferine derivative, room temperature 60 minutes
# [4] = E. coli membrane fraction expressing human CYP4F2, 2.5 μM luciferine derivative, room temperature 60 minutes
# [5] = human CYP4A11, luciferine derivative, luminescence
# [6] = human CYP4F2, luciferine derivative, luminescence
# Chain of human CYP4A11 (Q02928 5-519): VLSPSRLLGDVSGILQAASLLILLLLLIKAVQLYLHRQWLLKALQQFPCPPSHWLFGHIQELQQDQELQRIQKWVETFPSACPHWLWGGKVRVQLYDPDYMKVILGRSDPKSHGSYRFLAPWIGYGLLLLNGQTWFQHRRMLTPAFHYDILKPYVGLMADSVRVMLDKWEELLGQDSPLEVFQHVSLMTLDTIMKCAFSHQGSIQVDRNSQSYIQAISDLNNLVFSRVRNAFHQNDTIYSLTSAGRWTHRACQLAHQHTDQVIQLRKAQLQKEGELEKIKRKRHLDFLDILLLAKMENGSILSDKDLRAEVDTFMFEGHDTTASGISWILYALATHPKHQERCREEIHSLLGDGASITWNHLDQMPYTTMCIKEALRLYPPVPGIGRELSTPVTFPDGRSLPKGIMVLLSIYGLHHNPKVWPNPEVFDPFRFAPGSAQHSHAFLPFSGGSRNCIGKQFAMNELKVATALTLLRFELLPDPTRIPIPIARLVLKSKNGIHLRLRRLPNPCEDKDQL
Compound,"IC50 [1, 3] [nM]","IC50 [2, 4] [nM]","IC50 [1, 5] [nM]","IC50 [2, 6] [nM]"
"O=C(O)CC[C@H]1CCC[C@@H](COc2ccc(-c3ccn[nH]3)nc2)C1 (racemic) [Example 2-6, cis-3-[3-[[6-(1H-Pyrazol-5-yl)-3-pyridinyl]oxymethyl]cyclohexyl]propanoic Acid (Racemate)]",25,1300,,
"O=C(O)[C@H]1CCC[C@H](COc2ccc(-c3ccn[nH]3)nc2)C1 (racemic) [Example 9-1, trans-3-[[6-(1H-Pyrazol-5-yl)-3-pyridinyl]oxymethyl]-1-cyclohexanecarboxylic Acid (Racemate)]",51,1900,,
"O=C(O)C1CC1c1cccc(COc2ccc(-c3ccn[nH]3)nc2)c1 (single isomer, unassigned) [Example 26-1, trans-2-[3-[[6-(1H-Pyrazol-5-yl)-3-pyridinyl]oxymethyl]phenyl]-1-cyclopropanecarboxylic Acid]",20,400,,
"O=C(O)C1CC1c1ccc(CCOc2ccc(-c3ccn[nH]3)nc2)c(F)c1 (single isomer, unassigned) [Example 71-17]",,,250,520
"O=C(O)C1CC1c1cccc(COc2ccc(-c3ccn[nH]3)nc2)c1F (single isomer, unassigned) [Example 71-45, 2-[2-Fluoro-3-[[6-(1H-pyrazol-5-yl)pyridin-3-yl]oxymethyl]phenyl]cyclopropane-1-carboxylic Acid]",,,15,210
"O=C(O)C1CC1c1ccc(F)c(CCOc2ccc(-c3ccn[nH]3)nc2)c1 (single isomer, unassigned) [Example 74-7]",,,78,1300
"O=C(O)C1CC1c1ccc(F)c(CCOc2ccc(-c3ccn[nH]3)nc2)c1 (single isomer, unassigned) [Example 74-8]",,,77,410
"O=C(O)C1CC1c1cc(F)cc(CCOc2ccc(-c3ccn[nH]3)nc2)c1 (single isomer, unassigned) [Example 74-10]",,,56,2600
"O=C(O)C1CC1c1cc(F)cc(CCOc2ccc(-c3ccn[nH]3)nc2)c1 (single isomer, unassigned) [Example 74-11]",,,78,1200
"O=C(O)C1CCc2ccc(COc3ccc(-c4[nH]ncc4Cl)nc3)cc2O1 (single isomer, unassigned) [Example 75-7]",,,7.7,20
"O=C(O)C1CCc2ccc(COc3ccc(-c4[nH]ncc4Cl)nc3)cc2O1 (single isomer, unassigned) [Example 75-8]",,,67,67
"O=C(O)c1ccc(COc2ccc(-c3ccn[nH]3)nc2)cc1 [Example 1-1, 4-[[6-(1H-Pyrazol-5-yl)-3-pyridinyl]oxymethyl]benzoic Acid]",37,15000,,
CC(Oc1ccc(-c2ccn[nH]2)nc1)c1ccc(C(=O)O)cc1 (centres unmarked) [Example 1-2],250,42000,,
O=C(O)CCc1ccc(COc2ccc(-c3ccn[nH]3)nc2)cc1 [Example 1-3],79,220,,
O=C(O)CCc1ccccc1COc1ccc(-c2ccn[nH]2)nc1 [Example 1-4],110,16000,,
O=C(O)c1ccc(CCOc2ccc(-c3ccn[nH]3)nc2)cc1 [Example 1-5],150,3500,,
O=C(O)c1cccc(CCOc2ccc(-c3ccn[nH]3)nc2)c1 [Example 1-6],340,2300,,
O=C(O)c1ccccc1CCOc1ccc(-c2ccn[nH]2)nc1 [Example 1-7],2400,11000,,
O=C(O)c1ccc(CCCOc2ccc(-c3ccn[nH]3)nc2)cc1 [Example 1-8],78,2600,,
O=C(O)c1cccc(CCCOc2ccc(-c3ccn[nH]3)nc2)c1 [Example 1-9],79,480,,
O=C(O)c1ccccc1CCCOc1ccc(-c2ccn[nH]2)nc1 [Example 1-10],4200,27000,,
O=C(O)CCCc1ccccc1COc1ccc(-c2ccn[nH]2)nc1 [Example 1-11],24,43000,,
O=C(O)CCCCc1ccccc1COc1ccc(-c2ccn[nH]2)nc1 [Example 1-12],170,> 50000,,
O=C(O)Cc1ccc(CCOc2ccc(-c3ccn[nH]3)nc2)cc1 [Example 1-13],31,2700,,
O=C(O)Cc1cccc(CCOc2ccc(-c3ccn[nH]3)nc2)c1 [Example 1-14],21,7800,,
O=C(O)CCc1ccc(CCOc2ccc(-c3ccn[nH]3)nc2)cc1 [Example 1-15],210,670,,
O=C(O)CCc1cccc(CCOc2ccc(-c3ccn[nH]3)nc2)c1 [Example 1-16],36,1100,,
O=C(O)CCc1ccccc1CCCOc1ccc(-c2ccn[nH]2)nc1 [Example 1-17],16,5100,,

Compound,"IC50 [1, 3] [nM]","IC50 [2, 4] [nM]","IC50 [1, 5] [nM]","IC50 [2, 6] [nM]"
O=C(O)c1ccc(CCCCOc2ccc(-c3ccn[nH]3)nc2)cc1 [Example 1-18],14,330,,
O=C(O)c1cccc(CCCCOc2ccc(-c3ccn[nH]3)nc2)c1 [Example 1-19],9.5,220,,
O=C(O)C12CCC(COc3ccc(-c4[nH]ncc4Cl)nc3)(CC1)CC2 [Example 1-20],16,9200,,
O=C(O)C12CCC(COc3cnc(-c4ccn[nH]4)c(F)c3)(CC1)CC2 [Example 1-21],29,31000,,
Cc1cc(OCC23CCC(C(=O)O)(CC2)CC3)cnc1-c1ccn[nH]1 [Example 1-22],38,> 50000,,
O=C(O)CCC(=O)N1CCC[C@H](COc2ccc(-c3ccn[nH]3)nc2)C1 [Example 1-23],320,20000,,
O=C(O)CCC(=O)N1CCC[C@@H](COc2ccc(-c3ccn[nH]3)nc2)C1 [Example 1-24],170,15000,,
O=C(O)Cn1cc(-c2cccc(COc3ccc(-c4ccn[nH]4)nc3)c2)ccc1=O [Example 1-25],120,1600,,
O=C(O)C1CC(CCOc2ccc(-c3ccn[nH]3)nc2)C1 (centres unmarked) [Example 1-26],43,14000,,
O=C(O)C1CC1CCCOc1ccc(-c2ccn[nH]2)nc1 (centres unmarked) [Example 1-27],38,41000,,
O=C(O)C1CC1CCCOc1ccc(-c2ccn[nH]2)nc1 (centres unmarked) [Example 1-28],74,19000,,
O=C(O)C1CCCC(CCCOc2ccc(-c3ccn[nH]3)nc2)C1 (centres unmarked) [Example 1-29],30,360,,
O=C(O)C12CCC(CCCOc3ccc(-c4ccn[nH]4)nc3)(CC1)CC2 [Example 1-30],34,4100,,
CC(C)(CC(=O)N1CCC(CCCOc2ccc(-c3ccn[nH]3)nc2)CC1)C(=O)O [Example 1-31],1700,160,,
CC(C)(CC(=O)N1CCCC(CCCOc2ccc(-c3ccn[nH]3)nc2)C1)C(=O)O (centres unmarked) [Example 1-32],9300,3800,,
O=C(O)C1(CCCCOc2ccc(-c3ccn[nH]3)nc2)CCC1 [Example 1-33],74,15000,,
O=C(O)C1(CCCCOc2ccc(-c3ccn[nH]3)nc2)CCCC1 [Example 1-34],38,1800,,
O=C(O)C1(CCCCOc2ccc(-c3ccn[nH]3)nc2)CCCCC1 [Example 1-35],84,2200,,
CC(C)(Oc1cccc(CCCCOc2ccc(-c3ccn[nH]3)nc2)c1)C(=O)O [Example 1-36],110,1300,,
O=C(O)c1cccc(S(=O)(=O)N2CCC[C@@H](COc3ccc(-c4ccn[nH]4)nc3)C2)c1 [Example 1-37],21,94,,
CC(C)(CCc1cc(COc2ccc(-c3ccn[nH]3)nc2)ccn1)C(=O)O [Example 1-38],42,1200,,
CC(C)(CCc1cccc(COc2ccc(-c3ccn[nH]3)nc2)n1)C(=O)O [Example 1-39],420,9800,,
"O=C(O)c1cc(COc2ccc(-c3ccn[nH]3)nc2)ccn1 [Example 1-40, 4-[[6-(1H-Pyrazol-5-yl)-3-pyridinyl]oxymethyl]-2-pyridinecarboxylic Acid]",580,15000,,
"O=C(O)c1cc(COc2ccc(-c3n[nH]cc3Cl)nc2)ccn1 [Example 1-41, 4-[[6-(4-Chloro-1H-pyrazol-3-yl)-3-pyridinyl]oxymethyl]-2-pyridinecarboxylic Acid]",97,3700,,
O=C(O)C1CCC(COc2ccc(-c3ccn[nH]3)nc2)CC1 (centres unmarked) [Example 1-42],52,25000,,
"CC(C)(CCCCCOc1ccc(-c2ccn[nH]2)nc1)C(=O)O [Example 1-43, 2,2-Dimethyl-7-[[6-(1H-pyrazol-5-yl)-3-pyridinyl]oxy]heptanoic Acid]",46,18000,,
O=C(O)C1(CCCCCCOc2ccc(-c3ccn[nH]3)nc2)CCCCC1 [Example 1-44],110,510,,
